Columns and labels:
[1] = tested on: SETVI (Foxtail, Green); experiment: Postemergence herbicidal evaluation; type: in vivo, Setaria viridis; conditions: postemergence
How it was run: (§1)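 Two-week seedlings sprayed postemergence at 40 psi; formulation: 1:1 acetone/water, 0.5% TWEEN 20; application ≈0.0156–0.500 kg/ha. Greenhouse grow-out, then 0–9 visual scoring at 4–5 weeks.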

[2] = tested on: ORYSAT (Rice, Tebonnet); experiment: Postemergence herbicidal evaluation; type: in vivo, Oryza sativa, (L.) Tebonnet; conditions: postemergence
How it was run: as §1

[3] = tested on: ZEAMX (Corn, Field); experiment: Postemergence herbicidal evaluation; type: in vivo, Zea mays; conditions: postemergence
How it was run: as §1

[4] = tested on: ECHCG (Barnyardgrass); experiment: Preemergence herbicidal evaluation; type: in vivo, Echinochloa crus-galli; conditions: rated 4-5 weeks after treatment
How it was run: (§2)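 Test compound, dissolved in aqueous acetone, was sprayed over planted soil cups at an equivalent of about 0.0156 to 0.500 kg/ha; seeds had been mixed with potting soil. Greenhouse growth followed, with visual 0-9 scoring of injury at four to five weeks.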

[5] = tested on: SETVI (Foxtail, Green); experiment: Preemergence herbicidal evaluation; type: in vivo, Setaria viridis; conditions: rated 4-5 weeks after treatment
How it was run: as §2

[6] = tested on: TRZAWR (Wheat, Winter, cv Riband); experiment: Preemergence herbicidal evaluation; type: in vivo, Triticum aestivum; conditions: rated 4-5 weeks after treatment
Text: (§3) Results of herbicide evaluation are expressed on a rating scale (0-9). The scale is based upon a visual observation of plant stand, vigor, malformation, size, chlorosis and overall plant appearance as compared with a control.
(§4) The preemergence herbicidal activity of the test compounds of the present invention is exemplified by the following tests in which the seeds of a variety of monocotyledonous and dicotyledonous plants are separately mixed with potting soil and planted on top of approximately one inch of soil in separate pint cups. After planting, the cups are sprayed with the selected aqueous acetone solution containing test compound in sufficient quantity to provide the equivalent of about 0.0156 to 0.500 kg per hectare of test compound per cup. The treated cups are then placed on greenhouse benches, watered and cared for in accordance with conventional greenhouse procedures. From four to five weeks after treatment, the tests are terminated and each cup is examined and rated according to the rating system provided in Example 37.
(§5) The compounds evaluated are reported by compound number given in Example 37.

[7] = tested on: ZEAMX (Corn, Field); experiment: Preemergence herbicidal evaluation; type: in vivo, Zea mays; conditions: rated 4-5 weeks after treatment
Text: as §3, §4, §5

[8] = tested on: ECHORC (Watergrass (Calif.)); experiment: Preemergence weed control under flooded paddy conditions; type: in vivo, Echinochloa oryzoides; conditions: rated 3-4 weeks after treatment
How it was run: (§6)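 First, seeds or propagules go into the top 0.5 cm of silt loam; next, water is held 1.5 to 3 cm over the soil; then compound (50/50 acetone/water) is pipetted into it at about 0.0313 to 0.500 kg/ha; finally plants are rated visually 0-9 after three to four weeks.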

[9] = tested on: CYPIR (Rice Flatsedge); experiment: as above; type: in vivo, Cyperus iria; conditions: rated 3-4 weeks after treatment
How it was run: as §6

[10] = tested on: CYPSE (Flatsedge); experiment: as above; type: in vivo, Cyperus serotinus; conditions: rated 3-4 weeks after treatment
How it was run: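 Flooded-pot preemergence screen with silt loam and seeds in the upper 0.5 cm. Dose about 0.0313 to 0.500 kg/ha, delivered into flood water; visual 0-9 score after 3 to 4 weeks.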

Cn1c(C(F)(F)F)cc(=O)n(-c2cc(N=C3SCC(=O)N3CC(=O)OC3CCCC3)c(Cl)cc2F)c1=O [Compound 120, Cyclopentyl 2-{{2-chloro-5-[3,6-dihydro-3-methyl-2,6-dioxo-4-(trifluoromethyl)-1(2H)-pyrimidinyl]-4-fluorophenyl}imino}-4-oxo-3-thiazolidineacetate]
Herbicidal rating SETVI ([1]; rate 0.0156 kg/ha): 4.0 | Herbicidal rating SETVI ([1]; rate 0.0313 kg/ha): 9.0 | Herbicidal rating SETVI ([1]; rate 0.0625 kg/ha): 9.0 | Herbicidal rating ORYSAT ([2]; rate 0.0156 kg/ha): 2.0 | Herbicidal rating ORYSAT ([2]; rate 0.0313 kg/ha): 2.5 | Herbicidal rating ORYSAT ([2]; rate 0.0625 kg/ha): 2.5 | Herbicidal rating ZEAMX ([3]; rate 0.0156 kg/ha): 6.0 | Herbicidal rating ZEAMX ([3]; rate 0.0313 kg/ha): 7.0 | Herbicidal rating ZEAMX ([3]; rate 0.0625 kg/ha): 8.0 | Preemergence herbicidal rating ECHCG ([4]; rate 0.0156 kg/ha): 0.0 | Preemergence herbicidal rating ECHCG ([4]; rate 0.0313 kg/ha): 0.0 | Preemergence herbicidal rating ECHCG ([4]; rate 0.0625 kg/ha): 0.0 | Preemergence herbicidal rating ECHCG ([4]; rate 0.1250 kg/ha): 0.0 | Preemergence herbicidal rating ECHCG ([4]; rate 0.2500 kg/ha): 2.0 | Preemergence herbicidal rating SETVI ([5]; rate 0.0156 kg/ha): 0.0 | Preemergence herbicidal rating SETVI ([5]; rate 0.0313 kg/ha): 0.0 | Preemergence herbicidal rating SETVI ([5]; rate 0.0625 kg/ha): 9.0 | Preemergence herbicidal rating SETVI ([5]; rate 0.1250 kg/ha): 9.0 | Preemergence herbicidal rating SETVI ([5]; rate 0.2500 kg/ha): 9.0 | Preemergence herbicidal rating TRZAWR ([6]; rate 0.0156 kg/ha): 0.0 | Preemergence herbicidal rating TRZAWR ([6]; rate 0.0313 kg/ha): 0.0 | Preemergence herbicidal rating TRZAWR ([6]; rate 0.0625 kg/ha): 0.0 | Preemergence herbicidal rating TRZAWR ([6]; rate 0.1250 kg/ha): 0.0 | Preemergence herbicidal rating TRZAWR ([6]; rate 0.2500 kg/ha): 4.0 | Preemergence herbicidal rating ZEAMX ([7]; rate 0.0156 kg/ha): 0.0 | Preemergence herbicidal rating ZEAMX ([7]; rate 0.0313 kg/ha): 0.0 | Preemergence herbicidal rating ZEAMX ([7]; rate 0.0625 kg/ha): 0.0 | Preemergence herbicidal rating ZEAMX ([7]; rate 0.1250 kg/ha): 0.0 | Preemergence herbicidal rating ZEAMX ([7]; rate 0.2500 kg/ha): 3.0 | herbicidal effect rating, ECHORC ([8]; 0.0313 kg/ha): 7.0 | herbicidal effect rating, ECHORC ([8]; 0.0625 kg/ha): 8.0 | herbicidal effect rating, ECHORC ([8]; 0.1250 kg/ha): 9.0 | herbicidal effect rating, ECHORC ([8]; 0.2500 kg/ha): 9.0 | herbicidal effect rating, CYPIR ([9]; 0.0313 kg/ha): 2.0 | herbicidal effect rating, CYPIR ([9]; 0.0625 kg/ha): 2.5 | herbicidal effect rating, CYPIR ([9]; 0.1250 kg/ha): 3.5 | herbicidal effect rating, CYPIR ([9]; 0.2500 kg/ha): 9.0 | herbicidal effect rating, CYPSE ([10]; 0.0313 kg/ha): 0.0 | herbicidal effect rating, CYPSE ([10]; 0.0625 kg/ha): 0.0 | herbicidal effect rating, CYPSE ([10]; 0.1250 kg/ha): 0.0 | herbicidal effect rating, CYPSE ([10]; 0.2500 kg/ha): 3.5

— patent US20020137929A1, “1 - (3-heterocyclylphenyl) isothiourea, -isourea, -guanidine and -amidine herbicidal agents” (Intellectual Property Department, BASF Aktiengesellschaft, priority 1998, published 2002)
